This passage reports IC50 results from patent US20210139497A1, “THIENOCYCLIC COMPOUND AND SYNTHESIS METHOD THEREFOR AND APPLICATION THEREOF” (SHANGHAI YUYAO BIOTECH LTD., priority 2017, published 2021).

A short description of data set [1]: Cytotoxicity evaluation (CCK8), PANC02. The settings on record: mouse, PANC02 pancreatic cancer cells.
Method: (§5) Cells with a density of 2000-8000 cells per 100 μL medium were seeded in 96-well plates (Falcon, CA) and incubated for 24 hours, then treated with drugs having different concentration gradient (at least 4 replicates per concentration) and incubated at 37° C. in 5% CO2 incubator for 72 hours. Then cell viability was detected by CCK8 method. That is to say, add 10 μL CCK8 to each well and incubate for 0.33-2 h, and the OD values are read by microplate reader at 450 nm. The inhibition rate on cell survival of compounds with each concentration were calculated.
(§6) Inhibition rate on cell survival=(OD value of groups with each concentration/OD
(§7) value of control group)×100%±standard deviation.
(§8) The IC50 of drugs were calculated using GraphPad Prism 5.0.
The nature of data set [2]: Cytotoxicity evaluation (CCK8), MOSJ. Conditions: mouse, MOSJ osteosarcoma cells.
Method: as §5, §6, §7, §8
The target of data set [3] is T1, mouse PGE2 receptor EP4 subtype (mEP4) (Mus musculus, UniProt P32240).
T1 construct: expressed in transfected cells; host or cells: CHO-K1-Gα16
As to the kind of experiment: Calcium flux of mouse prostaglandin E2 receptor EP4 subtype. The format is cell-based. Conditions: CHO-K1-Gα16 cells overexpressing mEP4, calcium flux activated by prostaglandin E2; read-out: mEP4 Ca^2+ IC50. The protocol:
(§1) CHO-K1-Gα16 cells at the logarithmic growth phase were transfected with EP4 overexpressing vector by Lipofectamine 2000 and then seeded in a 96-well plate (Falcon, CA) and cultured at 20000 cells per 100 μL culture medium overnight. On the second day, every single well were added with 100 μL calcium 5 detection reagents (Molecular Devices) and incubated in incubator at 37° C., 5% CO2 for 45 minutes. The compounds were diluted in HBSS detection buffer, then added to 96-well plates. After incubated for 20 min at room temperature away from light, certain concentration of prostaglandin E2 was used to activate calcium flux of cells for detection (Flexstation 3, MD, CA).
(§2) Calculate the IC50 of the compounds of the invention in inhibiting the calcium flux of human PGE2 receptor EP4 subtype (hEP4) and mouse PGE2 receptor EP4 subtype (mEP4) (i.e. the concentration of drugs at which the intracellular Ca^2+ flux is inhibited by half after overexpressing hEP4 and mEP4 receptors in CHO-K1-Gα16 cells). The IC50 of the drugs were calculated using GraphPad Prism 5.
On the technique in general: Calcium flux is commonly read through the fluorescence of an indicator in the cells.

In data set [4] the target is T2, human prostaglandin E2 receptor EP2 subtype (Homo sapiens, UniProt P43116).
T2 construct: expressed in transfected cells; host or cells: CHO-K1-Gα16
As to the kind of experiment: Calcium flux of human prostaglandin E2 receptor EP2 subtype. The format is cell-based. Conditions: CHO-K1-Gα16 cells overexpressing human EP2, activated by prostaglandin E2; read-out: hEP2 Ca^2+ IC50. The protocol:
(§3) CHO-K1-Gα16 cells at the logarithmic growth phase were transfected with human prostaglandin E2 Receptor subtypes EP1, EP2 or EP3 overexpressing vector by Lipofectamine 2000, then seeded in a 96-well plate (Falcon, CA) at a density of 20000 cells per 100 μL culture medium for overnight culture. On the second day, every single well were added with 100 μL calcium 5 detection reagents (Molecular Devices) and incubated in incubator at 37° C., 5% CO2 for 45 minutes. The compounds were diluted with HBSS detection buffer, then were added to 96-well plates. After 20 min incubation at room temperature in the dark, prostaglandin E2 at certain concentration was used to activate calcium flux of cells for detection (Flexstation 3, MD, CA).
(§4) Calculate the IC50 of the compounds of the invention in inhibiting the calcium flux of human EP1, EP2, and EP3 receptor (i.e. the concentration of drugs at which the intracellular Ca^2+ flux being inhibited by half after overexpressing human EP1, EP2, and EP3 receptors in CHO-K1-Gα16 cells). The IC50 of the drugs were calculated using GraphPad Prism 5.

Data set [5] can be described thus: Cytotoxicity evaluation (CCK8), EMT-6. The settings on record: mouse, EMT-6 breast cancer cells.
Method: as §5, §6, §7, §8
Data set [6] can be described thus: Cytotoxicity evaluation (CCK8), LLC. The settings on record: mouse, LLC lung cancer cells.
Method: as §5, §6, §7, §8
A short description of data set [7]: Cytotoxicity evaluation (CCK8), CT26. The settings on record: mouse, CT26 intestinal cancer cells.
Method: as §5, §6, §7, §8
Data set [8] deals with T3, human prostaglandin E2 receptor EP3 subtype (Homo sapiens, UniProt P43115).
T3 construct: expressed in transfected cells; host or cells: CHO-K1-Gα16
T3 sequence (P43115 1-390): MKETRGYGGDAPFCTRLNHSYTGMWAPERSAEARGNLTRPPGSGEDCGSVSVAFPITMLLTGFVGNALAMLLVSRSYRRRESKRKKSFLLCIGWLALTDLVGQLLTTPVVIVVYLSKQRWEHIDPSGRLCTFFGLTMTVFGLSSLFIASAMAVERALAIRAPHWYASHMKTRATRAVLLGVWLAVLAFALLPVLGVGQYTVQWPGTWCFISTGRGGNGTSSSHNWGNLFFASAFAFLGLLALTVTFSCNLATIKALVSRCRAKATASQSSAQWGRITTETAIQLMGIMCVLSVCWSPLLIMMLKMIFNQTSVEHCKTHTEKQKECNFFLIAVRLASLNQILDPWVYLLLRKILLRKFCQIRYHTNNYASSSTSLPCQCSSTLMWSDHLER
As to the kind of experiment: Calcium flux of human prostaglandin E2 receptor EP3 subtype. The format is cell-based. The settings on record: CHO-K1-Gα16 cells overexpressing human EP3, activated by prostaglandin E2; read-out: hEP3 Ca^2+ IC50. The protocol:
as §3, §4

Data set [9] has as its target T4, human prostaglandin E2 receptor EP1 subtype (Homo sapiens, UniProt P34995).
T4 construct: expressed in transfected cells; host or cells: CHO-K1-Gα16
T4 sequence (P34995 1-402): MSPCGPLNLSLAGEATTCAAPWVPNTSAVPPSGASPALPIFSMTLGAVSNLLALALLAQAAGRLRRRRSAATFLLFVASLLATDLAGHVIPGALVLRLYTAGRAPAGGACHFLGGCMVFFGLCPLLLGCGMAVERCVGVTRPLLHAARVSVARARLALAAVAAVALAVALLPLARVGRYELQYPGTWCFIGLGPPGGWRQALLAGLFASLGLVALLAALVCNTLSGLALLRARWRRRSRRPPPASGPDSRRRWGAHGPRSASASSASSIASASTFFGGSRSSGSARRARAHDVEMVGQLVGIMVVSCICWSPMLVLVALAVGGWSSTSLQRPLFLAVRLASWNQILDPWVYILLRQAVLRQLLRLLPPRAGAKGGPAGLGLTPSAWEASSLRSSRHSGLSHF
As to the kind of experiment: Calcium flux of human prostaglandin E2 receptor EP1 subtype. The format is cell-based. Conditions: CHO-K1-Gα16 cells overexpressing human EP1, activated by prostaglandin E2; read-out: hEP1 Ca^2+ IC50. The protocol: as §3, §4

Data set [10] can be described thus: Cytotoxicity evaluation (CCK8), 293. The settings on record: human.
In data set [11] the target is T5, human PGE2 receptor EP4 subtype (hEP4) (Homo sapiens, UniProt P35408).
T5 construct: expressed in transfected cells; host or cells: CHO-K1-Gα16
As to the kind of experiment: Calcium flux of human prostaglandin E2 receptor EP4 subtype. Conditions: CHO-K1-Gα16 cells overexpressing hEP4, calcium flux activated by prostaglandin E2; read-out: hEP4 Ca^2+ IC50. The class given is cell-based. The protocol:
as §1, §2

T2 sequence (P43116 whole entry): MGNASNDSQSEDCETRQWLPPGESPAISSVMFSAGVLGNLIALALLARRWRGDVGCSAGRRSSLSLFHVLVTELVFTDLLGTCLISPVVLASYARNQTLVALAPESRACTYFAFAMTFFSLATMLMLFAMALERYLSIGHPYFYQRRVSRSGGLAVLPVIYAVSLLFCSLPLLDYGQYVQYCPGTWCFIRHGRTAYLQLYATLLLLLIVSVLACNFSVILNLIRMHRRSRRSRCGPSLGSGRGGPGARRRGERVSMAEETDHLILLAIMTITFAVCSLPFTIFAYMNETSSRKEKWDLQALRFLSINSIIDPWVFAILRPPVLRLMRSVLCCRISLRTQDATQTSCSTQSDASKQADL
T1 sequence (P32240 whole entry): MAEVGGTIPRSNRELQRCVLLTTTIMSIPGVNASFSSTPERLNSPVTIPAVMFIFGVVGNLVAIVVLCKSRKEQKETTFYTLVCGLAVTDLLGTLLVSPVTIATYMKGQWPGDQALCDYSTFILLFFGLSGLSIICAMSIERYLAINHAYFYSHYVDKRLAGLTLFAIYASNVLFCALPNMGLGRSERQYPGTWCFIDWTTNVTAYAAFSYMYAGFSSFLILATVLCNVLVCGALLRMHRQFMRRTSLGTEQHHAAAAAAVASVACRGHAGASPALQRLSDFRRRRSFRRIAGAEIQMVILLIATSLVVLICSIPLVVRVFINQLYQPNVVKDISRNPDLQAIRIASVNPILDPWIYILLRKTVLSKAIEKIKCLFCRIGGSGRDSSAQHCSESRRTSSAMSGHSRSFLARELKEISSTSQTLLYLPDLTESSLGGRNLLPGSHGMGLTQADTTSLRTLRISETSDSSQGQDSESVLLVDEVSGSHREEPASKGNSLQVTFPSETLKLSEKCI
T5 sequence (P35408 whole entry): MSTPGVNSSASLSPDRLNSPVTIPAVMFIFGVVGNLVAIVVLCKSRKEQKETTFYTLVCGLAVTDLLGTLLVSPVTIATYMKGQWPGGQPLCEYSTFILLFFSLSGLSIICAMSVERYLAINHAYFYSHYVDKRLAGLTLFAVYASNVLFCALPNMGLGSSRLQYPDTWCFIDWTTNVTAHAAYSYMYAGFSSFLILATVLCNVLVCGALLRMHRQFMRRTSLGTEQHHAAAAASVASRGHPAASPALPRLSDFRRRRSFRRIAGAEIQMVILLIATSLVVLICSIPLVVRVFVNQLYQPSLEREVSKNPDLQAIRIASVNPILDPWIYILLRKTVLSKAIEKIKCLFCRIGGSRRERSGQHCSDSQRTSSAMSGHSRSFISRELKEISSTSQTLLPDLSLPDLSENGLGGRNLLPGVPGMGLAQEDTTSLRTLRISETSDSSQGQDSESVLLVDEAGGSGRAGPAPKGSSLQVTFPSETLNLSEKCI

A word on the IC50: it is the concentration that inhibits the measured activity by half. For `C[C@H](NC(=O)c1c(C#Cc2ccc(F)cc2)sc2c1CCOC2)c1ccc(C(=O)O)cc1` [YJ101, (S)-4-(1-(2-((4-fluorophenyl)ethynyl)-5,7-dihydro-4H-thieno[2,3-c]pyran-3-carboxamido)ethyl)benzoic Acid], the IC50 at 72 h in data set [1], in [2], in [5], in [6], in [7] and in [10] was greater than 100 µM each time. Besides, the IC50 in [3] was 0.1 to 1 µM; in data set [4], greater than 10 µM; in [8], greater than 10 µM; in data set [9] it was greater than 10 µM.
Consider `C[C@H](NC(=O)c1c(C#Cc2ccc(F)cc2)sc2c1CCC2)c1ccc(C(=O)O)cc1` [YJ102, (S)-4-(1-(2-((4-fluorophenyl)ethynyl)-5,6-dihydro-4H-cyclopenta[b]thiophene-3-carboxamido)ethyl)benzoic Acid], for which the IC50 in data set [3] and in data set [11] was less than 0.1 µM each time.
On to `C[C@H](NC(=O)c1c(C#Cc2ccc(F)cc2)sc2c1CCCCC2)c1ccc(C(=O)O)cc1` [YJ104, (S)-4-(1-(2-((4-fluorophenyl)ethynyl)-5,6,7,8-tetrahydro-4H-cyclohepta[b]thiophene-3-carboxamido)ethyl)benzoic Acid], for which the half-inhibitory concentration (IC50) at 72 h in data set [1], in [2], in data set [5], in data set [6], in [7] and in data set [10] was greater than 100 µM throughout. For the same compound, the IC50 in data set [3] was 0.1 to 1 µM; in data set [4], greater than 10 µM; in [11] it was less than 0.1 µM; in data set [8], greater than 10 µM; in data set [9], greater than 10 µM.
Turning to `C[C@H](NC(=O)c1c(C#Cc2ccc(F)cc2)sc2c1CC(C)(C)OC2)c1ccc(C(=O)O)cc1` [YJ105, (S)-4-(1-(2-((4-fluorophenyl)ethynyl)-5,5-dimethyl-5,7-dihydro-4H-thieno[2,3-c]pyran-3-carboxamido)ethyl)benzoic Acid], the IC50 in data set [11] is 0.1 to 1 µM.
Turning to `C[C@H](NC(=O)c1c(CCc2ccc(F)cc2)sc2c1CCCC2)c1ccc(C(=O)O)cc1` [YJ108, (S)-4-(1-(2-(4-fluorophenethyl)-4,5,6,7-tetrahydrobenzo[b]thiophene-3-carboxamido)ethyl)benzoic Acid], the IC50 at 72 h in data set [1], in data set [2], in data set [5], in data set [6], in data set [7] and in data set [10] was greater than 100 µM each time. Moreover, the IC50 in data set [3] is less than 0.1 µM; in [4], greater than 10 µM; in data set [11] it was less than 0.1 µM; in [8], greater than 10 µM; in [9] it was greater than 10 µM.
As to `C[C@H](NC(=O)c1c(CCc2ccc(F)cc2)sc2c1CCC2)c1ccc(C(=O)O)cc1` [YJ109, (S)-4-(1-(2-(4-fluorophenethyl)-5,6-dihydro-4H-cyclopenta[b]thiophene-3-carboxamido)ethyl)benzoic Acid], the IC50 at 72 h in [1], in [2], in [5], in data set [6], in [7] and in data set [10] was greater than 100 µM throughout. Further, the IC50 in data set [3] is less than 0.1 µM.
Regarding `C[C@H](NC(=O)c1c(CCc2ccc(C(F)(F)F)cc2)sc2c1CCOC2)c1ccc(C(=O)O)cc1` [YJ111, (S)-4-(1-(2-(4-(trifluoromethyl)phenethyl)-5,7-dihydro-4H-thieno[2,3-c]pyran-3-carboxamido)ethyl)benzoic Acid], the IC50 in [3] and in data set [11] was less than 0.1 µM throughout.
As for `COc1ccc(CCc2sc3c(c2C(=O)N[C@@H](C)c2ccc(C(=O)O)cc2)CCOC3)cc1` [YJ122, (S)-4-(1-(2-(4-methoxyphenethyl)-4,7-dihydro-5H-thieno[2,3-c]pyran-3-carboxamido)ethyl)benzoic Acid], the IC50 in data set [11] is less than 0.1 µM.
The same measure, in the same setting: then `C[C@H](NC(=O)c1c(Cc2cccc(F)c2)sc2c1CCOC2)c1ccc(C(=O)O)cc1` [YJ123, (S)-4-(1-(2-(3-fluorobenzyl)-4,7-dihydro-5H-thieno[2,3-c]pyran-3-carboxamido)ethyl)benzoic Acid], with less than 0.1 µM; and `C[C@H](NC(=O)c1c(Cc2cccc(Cl)c2)sc2c1CCOC2)c1ccc(C(=O)O)cc1` [YJ126, (S)-4-(1-(2-(3-chlorobenzyl)-4,7-dihydro-5H-thieno[2,3-c]pyran-3-carboxamido)ethyl)benzoic Acid], with less than 0.1 µM; and `C[C@H](NC(=O)c1c(Cc2ccc(F)c(F)c2)sc2c1CCOC2)c1ccc(C(=O)O)cc1` [YJ127, (S)-4-(1-(2-(3,4-difluorobenzyl)-4,7-dihydro-5H-thieno[2,3-c]pyran-3-carboxamido)ethyl)benzoic Acid], with less than 0.1 µM.
Same read-out and setting: for `COc1ccc(Cc2sc3c(c2C(=O)N[C@@H](C)c2ccc(C(=O)O)cc2)CCOC3)cc1` [YJ128, (S)-4-(1-(2-(4-methoxybenzyl)-4,7-dihydro-5H-thieno[2,3-c]pyran-3-carboxamido)ethyl)benzoic Acid] the value was less than 0.1 µM.
Consider `O=C(NCC1CCC(C(=O)O)CC1)c1c(Cc2ccc(F)cc2)sc2c1CCOC2` (stereo not shown) [YJ130, 4-((2-(4-fluorobenzyl)-4,7-dihydro-5H-thieno[2,3-c]pyran-3-carboxamido)methyl)cyclohexane-1-carboxylic Acid], for which the values for the IC50 in data set [3] and in [11] were 0.1 to 1 µM and less than 0.1 µM, respectively.
Turning to `Nc1ccn([C@@H]2O[C@H](CO)[C@@H](O)C2(F)F)c(=O)n1` [gemcitabine, reference compound], the half-inhibitory concentration (IC50) at 72 h amounted to 0.0726 ± 0.0003 µM in [1], 0.0053 ± 0.0002 µM in data set [6], 0.016 ± 0.0001 µM in data set [7] and 0.0051 ± 0.0001 µM in data set [10].
